One may read the EC50 as the midpoint of the concentration-response curve.

Holding throughout (test): microbe, parasite or virus in culture
Holding throughout (assay type): cell-based, human immunodeficiency virus type 1 (HIV-1)

Assay [1] has as its system HIV-1 K103N-L100I mutant. Particulars: Human immunodeficiency virus 1, HeLa, read-out: EC50 mutant K103N-L100I, mutant K103N-L100I.
Assay [2] concerns HIV-1 Y188L mutant. Particulars: Human immunodeficiency virus 1, HeLa, read-out: EC50 mutant Y188L.
The test system of assay [3] is HIV-1 K103N-Y181C mutant. Particulars: Human immunodeficiency virus 1, HeLa, read-out: EC50 mutant K103N-Y181C.
The subject of assay [4] is HIV-1 K103N mutant. Particulars: Human immunodeficiency virus 1, HeLa, read-out: EC50 mutant K103N.
For assay [5], the system named is wild type HIV-1. Particulars: Human immunodeficiency virus 1, Hela-JC53.

As to `Cc1cnccc1-c1cc(C)c(Oc2nc(Nc3ccc(C#N)cc3)nc3ccn(C)c23)c(C)c1` [Example 7, 4-(4-(2,6-Dimethyl-4-(3-methylpyridin-4-yl)phenoxy)-5-methyl-5H-pyrrolo [3,2-d]pyrmidin-2-ylamino)benzonitrile], the EC50 in assay [1] was 1 to 10 nM; in assay [2], over 10 nM; in assay [3] it was 1 to 10 nM; in assay [4] it was 1 to 10 nM; in assay [5], 1 to 10 nM.

On to `Cc1cc(-c2cc(C)c(Oc3nc(Nc4ccc(C#N)cc4)nc4ccn(C)c34)c(C)c2)ccn1` [Example 8, 4-(4-(2,6-Dimethyl-4-(2-methylpyridin-4-yl)phenoxy)-5-methyl-5H-pyrrolo[3,2-d]pyrimidin-2-ylamino) benzonitrile], for which the EC50 in assay [1] is over 10 nM; in assay [2] it was over 10 nM; in assay [3], over 10 nM; in assay [4], over 10 nM; in assay [5] it was 1 to 10 nM.

Turning to `Cc1cc(-c2cccc(C#N)c2)cc(C)c1Oc1nc(Nc2ccc(C#N)cc2)nc2ccn(C)c12` [Example 16, 4′-(2-(4-Cyanophenylamino)-5-methyl-5H-pyrrolo[3,2-d]pyrimidin-4-yloxy)-3′,5′-dimethylbiphenyl-3-carbonitrile], the EC50 in assay [1] is over 10 nM; in assay [2], over 10 nM; in assay [3], over 10 nM; in assay [4] it was over 10 nM; in assay [5], 1 to 10 nM.

For the molecule `Cc1cc(-c2cccc(C#N)n2)cc(C)c1Oc1nc(Nc2ccc(C#N)cc2)nc2ccn(C)c12` [Example 17, 6-(4-(2-(4-Cyanophenylamino)-5-methyl-5H-pyrrolo[3,2-d]pyrimidin-4-yloxy)-3,5-dimethylphenyl)picolinonitrile], the EC50 in assay [1] is 1 to 10 nM; in assay [2], over 10 nM; in assay [3], over 10 nM; in assay [4], 1 to 10 nM; in assay [5], 1 to 10 nM.

Turning to `Cc1cc(-c2cn[nH]c2)cc(C)c1Oc1nc(Nc2ccc(C#N)cc2)nc2ccn(C)c12` [Example 24, 4-(4-(2,6-Dimethyl-4-(1H-pyrazol-4-yl)phenoxy)-5-methyl-5H-pyrrolo[3,2-d]pyrimidin-2-ylamino)-benzonitrile], the EC50 in assay [1] is 1 to 10 nM; in assay [2] it was 1 to 10 nM; in assay [3] it was over 10 nM; in assay [4], 1 to 10 nM; in assay [5], under 1 nM.

Consider `Cc1cc(-c2ccncc2)cc(C)c1Oc1nc(Nc2ccc(C#N)cc2)nc2nc[nH]c12` [Example 29, 4-(6-(2,6-Dimethyl-4-(pyridin-4-yl)phenoxy)-7H-purin-2-ylamino)benzonitrile], for which the EC50 in assay [1] was 1 to 10 nM; in assay [2], 1 to 10 nM; in assay [3], 1 to 10 nM; in assay [4], under 1 nM; in assay [5] it was under 1 nM.

As for `Cc1cc(-c2ccc(C(N)=O)cc2)cc(C)c1Oc1nc(Nc2ccc(C#N)cc2)nc2nc[nH]c12` [Example 45, 4′-(2-(4-Cyanophenylamino)-7H-purin-6-yloxy)-3′,5′-dimethylbiphenyl-4-carboxamide], the EC50 in assay [1] was 1 to 10 nM; in assay [2] it was 1 to 10 nM; in assay [3], 1 to 10 nM; in assay [4], 1 to 10 nM; in assay [5], under 1 nM.

For the molecule `Cc1cc(-c2ccc(S(N)(=O)=O)cc2)cc(C)c1Oc1nc(Nc2ccc(C#N)cc2)nc2nc[nH]c12` [Example 46, 4′-(2-(4-Cyanophenylamino)-7H-purin-6-yloxy)-3′,5′-dimethylbiphenyl-4-sulfonamide], the EC50 in assay [1] was over 10 nM; in assay [2] it was over 10 nM; in assay [3], 1 to 10 nM; in assay [4], 1 to 10 nM; in assay [5] it was 1 to 10 nM.

Take `Cc1cc(-c2ccc(C(N)=O)cc2F)cc(C)c1Oc1nc(Nc2ccc(C#N)cc2)nc2ccn(C)c12` [Example 50, 4′-(2-(4-Cyanophenylamino)-5-methyl-5H-pyrrolo[3,2-d]pyrimidin-4-yloxy)-2-fluoro-3′,5′-dimethylbiphenyl-4-carboxamide]: the EC50 in assay [1] was 1 to 10 nM; in assay [2], over 10 nM; in assay [3], 1 to 10 nM; in assay [4] it was 1 to 10 nM; in assay [5], 1 to 10 nM.

On to `Cc1cc(-c2ccc(S(N)(=O)=O)cc2)cc(C)c1Oc1nc(Nc2ccc(C#N)cc2)nc2ncn(C)c12` [Example 53, 4′-(2-(4-Cyanophenylamino)-7-methyl-7H-purin-6-yloxy)-3′,5′-dimethylbiphenyl-4-sulfonamide], for which the EC50 in assay [1] is 1 to 10 nM; in assay [2] it was over 10 nM; in assay [3], 1 to 10 nM; in assay [4], 1 to 10 nM; in assay [5] it was 1 to 10 nM.

Consider `Cc1cc(-c2ccc(C(N)=O)cn2)cc(C)c1Oc1nc(Nc2ccc(C#N)cc2)nc2ccn(C)c12` [Example 61, 6-(4-(2-(4-Cyanophenylamino)-5-methyl-5H-pyrrolo[3,2-d]pyrimidin-4-yloxy)-3,5-dimethyl-phenyl)nicotinamide], for which the EC50 is 1 to 10 nM in assay [1]; 1 to 10 nM in assay [2]; over 10 nM in assay [3]; 1 to 10 nM in assay [4]; 1 to 10 nM in assay [5].

For the molecule `Cc1cc(-c2ccc(C(N)=O)cc2)cc(C)c1Oc1nc(Nc2ccc(C#N)cc2)nc2ccn(C)c12` [Example 78, 4′-(2-(4-cyanophenylamino)-5-methyl-5H-pyrrolo[3,2-d]pyrimidin-4-yloxy)-3′,5′-dimethylbiphenyl-4-carboxamide], the EC50 in assay [1], in assay [2], in assay [3], in assay [4] and in assay [5] was 1 to 10 nM in each case.

As for `Cc1cc(-c2ccc(C(N)=O)cc2)cc(C)c1Oc1nc(Nc2ccc(C#N)cc2)nc2ncn(C)c12` [Example 111, 4′-(2-(4-Cyanophenylamino)-7-methyl-7H-purin-6-yloxy)-3′,5′-dimethylbiphenyl-4-carboxamide], the EC50 in assay [1] was 1 to 10 nM; in assay [2] it was over 10 nM; in assay [3], over 10 nM; in assay [4], 1 to 10 nM; in assay [5], 1 to 10 nM.

As to `Cc1cc(-c2ccc(C(N)=O)cn2)cc(C)c1Oc1nc(Nc2ccc(C#N)cc2)nc2ncn(C)c12` [Example 123, 6-(4-(2-(4-cyanophenylamino)-7-methyl-7H-purin-6-yloxy)-3,5-dimethylphenyl)nicotinamide], the EC50 in assay [1] is over 10 nM; in assay [2], 1 to 10 nM; in assay [3], over 10 nM; in assay [4], 1 to 10 nM; in assay [5], 1 to 10 nM.

The values are drawn from patent US8207178B2 (priority 2007, dated 2012).
